# From PMC11077972, “Optimization of the antifungal properties of the bacterial peptide EntV by variant analysis” (mBio, 2024)
# Where a SMILES comes first, the peptide text is derived from it. Bridges are numbered along the chain shown (N, C = ends). [ ]: non-standard residue; d: D form. R8 = C=CCCCCCC[C@@](C)(N)C(=O)O; S5 = C=CCCC[C@](C)(N)C(=O)O
# Columns and labels:
# [1] = test system: C. albicans biofilm; test: C. albicans biofilm assay in artificial saliva medium (crystal violet); format: cell-based, Candida albicans; conditions: 10 nM peptide
# Protocol: Briefly, C. albicans strains were grown in YPD broth for 18 hrs at 30°C with agitation and then sub-cultured for 4 hrs in the same conditions. Cells were then collected by centrifugation at 16,000 x g for 30 s, washed twice in PBS, and adjusted to a concentration of 5 × 10^6 cells/mL (measured with Countess II, Life Technologies) in PBS treated with the 10 nM peptide. The cell suspension was incubated for 1 hr at 30°C with agitation at 200 rpm. Then, 100 µL of the cell suspension was added to wells of a 96-well tissue culture-treated polystyrene plate (Falcon). The PBS and unadhered cells were removed and then replaced with 200 µL of the artificial saliva medium ([15], [60]) containing the 10 nM peptide. The plate was then incubated at 37°C for 48 h.
# After incubation, the medium was gently removed along with any planktonic cells. The biofilm was then stained for 20 min with 50 µL of 0.08% crystal violet solution (Sigma). The crystal violet stain was then aspirated, and the wells were washed four times with sterile water. Biofilms were de-stained with 200 µL of 200 proof ethanol for 20 min, and 100 µL of the ethanol solution was transferred to a new well for analysis.
# [2] = test system: C. albicans; test: C. elegans survival assay after infection with C. albicans; format: in vivo, Candida albicans; conditions: 1 nM peptide; for Median survival: C. albicans infected C. elegans, 25°C, experiment with 12aa (i+7 staple)
# Protocol: C. elegans infection assays were performed with strain glp-4(bn2);sek-1(km-4) ([40]), which were propagated and maintained on E. coli strain OP50 grown as lawns on nematode growth medium (NGM) agar using standard techniques ([58]). To synchronize the nematodes to the same stage of growth, L1 stage worms on non-starved plates were washed off, filtered through a 10- µm filter (pluriSelect, pluriStrainer 10 µm), harvested by centrifugation at 1,500 rpm for 60 seconds, transferred to OP50-seeded plates, and grown to the L4 stage.
# To prepare the infection plates, fungal strains were grown in BHI broth overnight at 30°C with agitation. About 500 µL of the culture was plated onto BHI solid medium containing gentamycin (10 µg/mL) and grown for 24 hrs at 37°C. The synchronized L4 C. elegans nematodes were then washed off the OP50 plates in 2 mL sterile M9 buffer and washed once, centrifuging at 800 rpm for 30 seconds to collect the nematodes. Nematodes were infected by placing them on the fungal lawn for 4 hrs at 25°C. Following this exposure, they were washed off the plate and washed four times with 2 mL of sterile M9. The nematodes were then pipetted (~30 per well with two wells per condition for a total of ~60 worms assayed) into six-well plates with 2 mL of the liquid medium (20% BHI broth and 80% M9) containing 1 nM of the peptide. A DMSO-untreated control was used with each experiment. Plates were incubated at 25°C, and worm death was scored daily. Kaplan–Meier survival curves were generated and analyzed, as described in the quantification and statistical analysis section.
compound,measurement,setting,value
CC(C)C[C@@H]1NC(=O)[C@H](C)NC(=O)[C@H](CC(C)C)NC(=O)[C@H](CCC(N)=O)NC(=O)CNC(=O)[C@@](C)(NC(=O)[C@@H](N)C(C)C)CCC/C=C\CCCCCC[C@](C)(C(=O)N[C@H](C(=O)N[C@@H](CCC(N)=O)C(=O)N[C@@H](CS)C(N)=O)C(C)C)NC(=O)[C@H](Cc2c[nH]c3ccccc23)NC1=O [12aa (i+7 staple)] (H-V[S5]GQLALW[R8]VQC-NH2; staple (Z) 2-9),Antifungal activity in biofilm assay,[1],fully active
same,Protection of C. elegans from C. albicans infection relative to parent peptide,"[2]; survival curves, Mantel–Cox log rank",remained as effective as the original
same,Median survival,[2]; trial 1,12 days
same,Median survival,[2]; trial 2,11.5 days
